From ChEMBL document CHEMBL3739284, “Anteaglonialides A-F and Palmarumycins CE(1)-CE(3) from Anteaglonium sp. FL0768, a Fungal Endophyte of the Spikemoss Selaginella arenicola” (J Nat Prod, 2015)

Experiment: Cytotoxicity against human CHP100 cells after 24 hrs by MTT assay
Type: functional, cell-based
Details: CHP100, 24 h

Point of comparison: O=C1C=CC2(Oc3cccc4cccc(c34)O2)[C@H]([C@H]2CCC(=O)O2)C1, IC50 1400 nM. Against it:
- O=C1C=CC2(Oc3cccc4cccc(c34)O2)c2cccc(O)c21 — within 1.5-fold, 1600 nM
- O=C1C=C[C@H]2O[C@H]3CC(=O)[C@@H]1[C@@H]2C31Oc2cccc3cccc(c23)O1 — 3.5-fold lower, 400 nM
